US20220362153A1, “COMPOSITIONS AND METHODS FOR PULMONARY SURFACTANT-BIOMIMETIC NANOPARTICLES” (priority 2019, published 2022)

System: rgVN04 H5N1 virus
Parameters: species or system mice
Settings: mouse, in vivo

## cholera toxin [CT]
  early protection by VN04 H5N1 vaccine combined with adjuvant: did not provide any early protection
